Assay results from PMC11503492, “Activity-Based DNA-Encoded Library Screening for Selective Inhibitors of Eukaryotic Translation” (ACS Central Science, 2024).

What was measured:
[1] = system: PCSK9[1:33]-GFP translation from mRNA; test: IVTT activity assay of PCSK9[1:33]-GFP initiated with RNA template; format: biochemical
Description: Figure S10. Activity of compounds 8 and 9 on transcription. (A) Screening hits 8 and 9 were analyzed in dose-response IVTT activity assays of PCSK9[1:33]-GFP initiated with DNA (black) and RNA (gray) template. (B) Products of PCSK9[1:33]-GFP T7 transcription reactions incubated with DMSO, screening hits 8 and 9, or PF846 were visualized on a 1.5% agarose gel
(1 picture or pasted object on this page, not shown here)

[2] = system: PCSK9[1:33]-GFP translation; test: Wheat germ lysate (WG) IVTT microplate activity assay, PCSK9[1:33]-GFP template; format: biochemical; conditions: for inhibition of PCSK9[1:33]-GFP translation (in words) / IC50: WG IVTT; for IC50: PCSK9[1:33]-GFP template, triplicate, ± standard deviation of the mean
Source text: A commercially available wheat germ lysate (WG) IVTT system was employed to assay translation inhibition. Translation activity was detected via a GFP reporter, and the assay was miniaturized to picoliter-scale microfluidic droplets (Figure 1A,B). […] PCSK9 and RPL27 were truncated to the first 33 and 32 amino acids, respectively (PCSK9[1:33] and RPL27[1:32]). The sequences contain distinct PF846 stall sites and were both fused to a GFP reporter. The GFP reporter and a frameshift mutant of PCSK9[1:33] (PCSK9-FS[1:33]), which mutates the nascent chain sequence while maintaining a nearly identical mRNA sequence, were included as negative controls.[13] […] Sequence sensitivity was further confirmed by an N-terminal deletion series of PCSK9[1:33]-GFP; deletion of N-terminal residues increasingly ablated PCSK9[1:33]-GFP translation sensitivity to PF846 (Figure 1D). The WG IVTT assay was miniaturized using a previously described microfluidic circuit modified for longer incubation times (Figure S1)[27] using PF846 as a positive control compound, and assay statistical quality was calculated (Z′=0.7) (Figure 1E). To confirm detection of translation inhibition from library beads, hygromycin B, a nonselective aminoglycoside translation inhibitor, was coupled to beads displaying a photocleavable linker (PC-HygB). UV irradiation releases hygromycin from the bead, allowing it to interact with the WG IVTT assay in the droplet. PC-HygB bead photocleavage supernatant inhibited PCSK9[1:33]-GFP translation both in a microplate assay and in microfluidic droplets (Figure 1F,G, S2). Assay statistical quality using PC-HygB positive control beads was similarly calculated (Z′ = 0.75, Figure 1H). […]
436 Microplate IVTT Assays
437 Wheat germ lysate IVTT plate assays were prepared as 5 µL reactions. Wheat germ lysate
438 (3 µL) was added to test compound or vehicle control (1 µL) in a 384-well black microplate
439 and the reaction was incubated (10 min, RT). Template (1 µL) was added and reaction
440 progress was immediately monitored (λex = 480 nm, λem = 530 nm, 27 °C, 2 h). Rela-
441 tive activity was calculated using the slope of fluorescence increase over time (at 15–30
442 min post reaction initiation) for compound samples relative to that of the DMSO vehicle
443 control. […]

HeLa-derived IVTT = test: HeLa lysate IVTT microplate activity assay; format: biochemical, human; conditions: dose-response
Source text: 421 region sequences were matched to an alpha numeric DNA region identifier (11xx, 22xx,
422 13xx, 24xx, 15xx, 26xx, respectively), while allowing a 1-bp mutation per encoding region.
423 No insertions or deletions were tolerated.
424 match a known encoding region identifier at all six encoding positions (2) contained a
425 single point mutation in more than 4 of the DNA encoding regions (3) contained a UMI
427 presented in the library or positive control designs or (5) contained a minimum Phred
428 quality score less than 20. A sum of UMI counts for all remaining unique combinations
429 of encoding region identifiers was then determined using a UMI aggregation algorithm;
430 1 bp mutations were considered the same UMI. Encoding region identifiers were then
431 converted to library BB identifiers per the library design with an associated UMI count.
432 Any encoding region/ bead-specific barcode combinations with a UMI count below a
433 manually determined threshold (10) were discarded. The remaining ”valid beads” were […]
440 progress was immediately monitored (λex = 480 nm, λem = 530 nm, 27 °C, 2 h). […]
441 tive activity was calculated using the slope of fluorescence increase over time (at 15–30 […]
449 immediately monitored (λex = 480 nm, λem = 530 nm, 27 °C, 2 h). […]
450 culated using the slope of fluorescence increase over time (15–30 min post reaction initia- […]

Structure (SMILES) | activity when translation initiated from mRNA rather than plasmid DNA (in words) [1] | inhibition of PCSK9[1:33]-GFP translation (in words) [2] | IC50 [2] | inhibition of translation of all reporters (in words) ([2]; all IVTT reporters tested) | activity in HeLa-derived (human) IVTT (in words) (HeLa-derived IVTT)
Cc1cccc2ccnc(N(C(=O)C3CCN(C(=O)c4cccc5c(C#N)c[nH]c45)CC3)[C@@H]3CCCNC3)c12 [Compound 9] | inactive | similarly active on both templates | 19.6 ± 0.2 µM | universally and completely inhibited | active
Cc1cccc2ccnc(N(C(=O)[C@H]3CCCN(C(=O)c4cccc5c(C#N)c[nH]c45)C3)[C@@H]3CCCNC3)c12 [Compound 8] | active | moderately inhibited | 1.3 ± 0.2 µM | – | active
